Some test systems named below: SK-OV-3; UACC-62; T47D; NCI-H460; EKVX; RPMI-8226; MDA-MB-435; SW-620; PC-3; OVCAR-4; HCT-116; 786-0; CAKI-1; TK-10; SK-MEL-5; NCI-H23; HOP-92; SNB-75; BT-549.
Common to all, as to experiment: NCI tumour cell line growth inhibition, 48 h

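Values below derive from 48-hour exposures of cells grown in 96-well plates, with endpoints linearly interpolated between the two concentrations bracketing the appropriate inhibition level. The concentration for 50% growth inhibition is given as GI50.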 Activity calls are given as the source filed them. No stated cut-off is given here; in the data, active = GI50 up to about 1.1 µM and inactive = higher. Where only a bound is given, the exact number is not on record here.

As for `COc1cc(/C=C/c2ccnc3ccccc23)cc(OC)c1OC`, the GI50 with SK-OV-3 was 4.19 µM (inactive); with UACC-62, 3.17 µM (inactive); with T47D it was 3.81 µM (inactive); in the assay on NCI-H460, 3.77 µM (inactive); in the assay with EKVX, 8.87 µM (inactive); with RPMI-8226 it was 3.72 µM (inactive). Moreover, the GI50 in the assay on MDA-MB-435 is 0.413 µM (active); in the assay with SW-620, 4.93 µM (inactive); in the assay on PC-3, 9.29 µM (inactive); with OVCAR-4, 1.81 µM (inactive); in the assay with HCT-116, 1.82 µM (inactive); in the assay with 786-0, 8.97 µM (inactive). The GI50 in the assay on CAKI-1 was 3.7 µM (inactive); in the assay on TK-10 it was 5.37 µM (inactive); with SK-MEL-5 it was 2.45 µM (inactive); in the assay on NCI-H23, 1.66 µM (inactive).
Turning to `COCOc1ccc(C(=O)Oc2cccc3c2OC(C)(C)O3)c(OCOC)c1`, the GI50 with SK-OV-3 is > 100 µM (inactive); with UACC-62 it was 28.2 µM (inactive); with HOP-92 it was > 100 µM (inactive); with T47D, 37.8 µM (inactive); in the assay with NCI-H460, 56 µM (inactive); in the assay on EKVX, > 100 µM (inactive). In addition, the GI50 was 38.7 µM (inactive) with RPMI-8226; 60 µM (inactive) in the assay on MDA-MB-435; 43.2 µM (inactive) in the assay with SW-620; 74.5 µM (inactive) in the assay with SNB-75; > 100 µM (inactive) in the assay on HCT-116; > 100 µM (inactive) with 786-0. Also, the GI50 with CAKI-1 was > 100 µM (inactive); in the assay with TK-10, > 100 µM (inactive); in the assay on SK-MEL-5 it was 54.8 µM (inactive); with NCI-H23 it was < 0.01 µM (active).
With `O=Cc1ccc2c(c1)CC1(C2)Cc2ccc(C=O)cc2C1`, the GI50 was 55.2 µM (inactive) in the assay on SK-OV-3; 6.76 µM (inactive) with UACC-62; 20.6 µM (inactive) in the assay with HOP-92; 25.8 µM (inactive) with T47D; 11.6 µM (inactive) in the assay with NCI-H460; 28.2 µM (inactive) in the assay on EKVX. For the same molecule, the GI50 in the assay with RPMI-8226 is 0.274 µM (active); in the assay with MDA-MB-435, 2.62 µM (inactive); in the assay with SW-620 it was 16.1 µM (inactive); with PC-3 it was 17.1 µM (inactive); in the assay on SNB-75 it was 61.8 µM (inactive); in the assay on OVCAR-4, 12.4 µM (inactive). Further, the GI50 is 7.52 µM (inactive) in the assay on HCT-116; 7.45 µM (inactive) in the assay on 786-0; 44.9 µM (inactive) in the assay with CAKI-1; 8.81 µM (inactive) in the assay on TK-10; 5.28 µM (inactive) with SK-MEL-5; 17.6 µM (inactive) in the assay with NCI-H23.
In the case of `COC1(CC[C@@H](C)COC2OC(CO)C(O)C(O)C2O)OC2C[C@H]3[C@@H]4CC[C@H]5C[C@@H](OC6OC(CO)C(OC7OC(CO)C(O)C(O)C7O)C(O)C6OC6OC(C)C(O)C(O)C6O)[C@H](O)C[C@]5(C)[C@H]4CC[C@]3(C)C2[C@@H]1C` (stereo not given in full), the GI50 in the assay on SK-OV-3 is 1.87 µM (inactive); with UACC-62 it was 1.85 µM (inactive); in the assay with HOP-92, 4.24 µM (inactive); with T47D, 3.04 µM (inactive); with NCI-H460, 3.08 µM (inactive); with EKVX, 2.14 µM (inactive). Also, the GI50 with RPMI-8226 was 2 µM (inactive); with MDA-MB-435, 1.84 µM (inactive); in the assay with SW-620 it was 2.06 µM (inactive); in the assay with PC-3, 1.87 µM (inactive); in the assay with SNB-75, 1.77 µM (inactive); with OVCAR-4 it was 1.97 µM (inactive). Also, the GI50 in the assay with HCT-116 was 1.86 µM (inactive); with 786-0 it was 2.02 µM (inactive); in the assay on CAKI-1 it was 2.01 µM (inactive); with TK-10, 2.12 µM (inactive); in the assay on SK-MEL-5, 1.79 µM (inactive).
With `C#CC(O)/C=C/C(O)CCCC(O)CC#CC(O)C#CCCCCC(O)/C=C/CCCC(=O)CCCCCCCCCCCCCCCC(O)C(O)C#CC(=O)O` (stereo not given), the GI50 in the assay with SK-OV-3 is > 25 µM (inactive); in the assay on UACC-62, > 25 µM (inactive); in the assay on HOP-92 it was > 25 µM (inactive); with T47D it was 14.2 µM (inactive); in the assay on NCI-H460 it was > 25 µM (inactive); with EKVX, > 25 µM (inactive). Besides, the GI50 in the assay on RPMI-8226, in the assay on MDA-MB-435, in the assay with PC-3, in the assay with SNB-75, with OVCAR-4 and in the assay with HCT-116 was > 25 µM (inactive) throughout. In addition, the GI50 in the assay with 786-0, with CAKI-1, with TK-10, in the assay on SK-MEL-5 and in the assay with NCI-H23 was > 25 µM (inactive) in each case.
As for `C=CCO[C@]1(CC=C)C(=O)C(=O)OC1C1COC(C)(C)O1` (stereo not given in full), the GI50 was 22.3 µM (inactive) in the assay on HOP-92; 34.8 µM (inactive) in the assay on T47D; 65.2 µM (inactive) in the assay with NCI-H460; > 100 µM (inactive) with EKVX; 25.9 µM (inactive) with RPMI-8226; 36 µM (inactive) in the assay with MDA-MB-435. In addition, the GI50 is 18.6 µM (inactive) in the assay with SW-620; 44.6 µM (inactive) in the assay with PC-3; 27.7 µM (inactive) with SNB-75; 32 µM (inactive) with HCT-116; 35.1 µM (inactive) in the assay with 786-0; 27.1 µM (inactive) in the assay on CAKI-1. Further, the GI50 with SK-MEL-5 was 36.1 µM (inactive); in the assay with NCI-H23, 53.2 µM (inactive).
For the molecule `C=CC[C@@H]1C(=O)[C@@]2(O[Si](C(C)C)(C(C)C)C(C)C)CC[C@@H]1C[C@H]2NC(=O)OCC(Cl)(Cl)Cl`, the GI50 is > 100 µM (inactive) in the assay with SK-OV-3; > 100 µM (inactive) in the assay with UACC-62; > 100 µM (inactive) in the assay on T47D; 35.5 µM (inactive) in the assay with NCI-H460; > 100 µM (inactive) in the assay with MDA-MB-435; > 100 µM (inactive) in the assay with SW-620. Besides, the GI50 in the assay on PC-3 is 32.9 µM (inactive); in the assay with SNB-75, > 100 µM (inactive); in the assay on OVCAR-4, > 100 µM (inactive); in the assay on HCT-116, 27.9 µM (inactive); with 786-0, 77.1 µM (inactive); with CAKI-1, 59.2 µM (inactive). Besides, the GI50 in the assay with TK-10, in the assay on SK-MEL-5 and in the assay on NCI-H23 was > 100 µM (inactive) each time.
For the molecule `CCOC(=O)c1c(N2CCCC2)nsc1Nc1ccc(F)cc1`, the GI50 was 41 µM (inactive) in the assay on SK-OV-3; 45.4 µM (inactive) with UACC-62; 28.7 µM (inactive) in the assay with HOP-92; 9.57 µM (inactive) with T47D; 27 µM (inactive) in the assay on NCI-H460; 8.38 µM (inactive) with EKVX. The GI50 in the assay on RPMI-8226 is 36.6 µM (inactive); in the assay on MDA-MB-435, 28.8 µM (inactive); with SW-620, 40.4 µM (inactive); in the assay with PC-3, 20.4 µM (inactive); with OVCAR-4, 64.4 µM (inactive); with HCT-116 it was 29.7 µM (inactive). The GI50 in the assay with 786-0 was 26.1 µM (inactive); in the assay with CAKI-1, 37.5 µM (inactive); in the assay with TK-10, 57.7 µM (inactive); in the assay on SK-MEL-5, 18 µM (inactive); with NCI-H23, 27.1 µM (inactive).
As to `CSc1nncc(-c2cc3c(c(SC)n2)CCCC3)n1`, the GI50 is 40.1 µM (inactive) in the assay on SK-OV-3; > 100 µM (inactive) in the assay on UACC-62; > 100 µM (inactive) with NCI-H460; > 100 µM (inactive) in the assay with BT-549; > 100 µM (inactive) with EKVX; > 100 µM (inactive) in the assay with RPMI-8226. In addition, the GI50 was > 100 µM (inactive) with MDA-MB-435; > 100 µM (inactive) with SW-620; > 100 µM (inactive) with PC-3; 60.7 µM (inactive) with SNB-75; > 100 µM (inactive) with OVCAR-4; > 100 µM (inactive) in the assay on HCT-116. The GI50 with 786-0 was > 100 µM (inactive); in the assay with CAKI-1 it was 61.5 µM (inactive); with TK-10, > 100 µM (inactive); in the assay on SK-MEL-5 it was > 100 µM (inactive); in the assay on NCI-H23, > 100 µM (inactive).
As to `Cc1ccc(S(=O)(=O)C(C#N)c2nc3ccccc3nc2-n2ccnc2)cc1` (stereo not given), the GI50 in the assay with SK-OV-3, in the assay on HOP-92, in the assay on NCI-H460, with EKVX, with RPMI-8226 and in the assay with SNB-75 was > 100 µM (inactive) throughout. In addition, the GI50 in the assay on OVCAR-4, in the assay on HCT-116, in the assay on 786-0, in the assay with TK-10, in the assay with SK-MEL-5 and in the assay on NCI-H23 was > 100 µM (inactive) throughout.
As to `CCc1cc2c(cc1C(=O)CCC(=O)O)CC1(C2)Cc2cc(CC)c(C(=O)CCC(=O)O)cc2C1`, the GI50 is > 100 µM (inactive) in the assay on SK-OV-3; > 100 µM (inactive) with HOP-92; > 100 µM (inactive) in the assay on T47D; > 100 µM (inactive) in the assay on NCI-H460; > 100 µM (inactive) with EKVX; 63.1 µM (inactive) in the assay with RPMI-8226. The GI50 with MDA-MB-435 was > 100 µM (inactive); with SW-620, > 100 µM (inactive); in the assay with PC-3, > 100 µM (inactive); in the assay on SNB-75 it was 50.5 µM (inactive); in the assay on OVCAR-4, > 100 µM (inactive); with HCT-116 it was > 100 µM (inactive). Further, the GI50 in the assay on 786-0, with CAKI-1, in the assay on TK-10, with SK-MEL-5 and in the assay on NCI-H23 was > 100 µM (inactive) each time.
Turning to `C=CC1(C)/C(=N\O)C(C)(CC)C(=O)N1O` (stereo not given), the GI50 in the assay with SK-OV-3, in the assay on UACC-62, in the assay on HOP-92, in the assay with NCI-H460, in the assay with EKVX and in the assay with SW-620 was > 100 µM (inactive) in each case. Besides, the GI50 in the assay on SNB-75, in the assay with OVCAR-4, with HCT-116, in the assay with 786-0, in the assay with CAKI-1 and with TK-10 was > 100 µM (inactive) throughout. The GI50 in the assay with SK-MEL-5 and with NCI-H23 was > 100 µM (inactive) in each case.

These data come from ChEMBL document CHEMBL1201862, “PubChem BioAssay data set” (2004).
